Measurements: patent publication US20050239873A1 (priority 1999, published 2005)

Legend:
NCI-H929 = assay: Propidium iodide exclusion / flow cytometry cytotoxicity; format: cell-based, human; conditions: 5 to about 20 μg/ml
Method: (§1) Cell survival was assayed by exclusion of propidium iodide (PI; 10 μg/ml) by unfixed cells. Annexin V-FITC (Pharmingen) or 3, 3′-dihexyloxacarbocyanine iodide (DiOC6(3); Molecular Probes) staining was analyzed together with PI to discriminate early apoptotic cells. Apoptotic cells were also measured as sub-G1 events among ethanol-fixed cells stained with 10 μg/ml PI. All cell samples were analyzed using a benchtop FACSCalibur™ (Becton Dickinson, San Jose, Calif.). Flow data were analyzed using MultiCycle AV software (Phoenix Flow Systems). For intracellular pH measurements, cell pellets were washed once and resuspended in 2 ml of HEPES-buffered medium (no phenol red and no serum). Carboxy-SNARF-1-AM (Molecular Probes, 1 mM stock in DMSO, stored at −20° C.) was added to a final concentration of 10 μM, and the cells were incubated for 30 min at 37° C. Following incubation with SNARF, cells were sedimented and the pellets were held on ice. Immediately before analysis, pellets were resuspended in […] (HBSS; experimental buffer) or high-[K+] buffer containing nigericin (calibration samples).

U266 = assay: as above; format: cell-based, human; conditions: 5 to about 20 μg/ml
Method: as §1

[1] = target: T1, recombinant human Bcl-2ΔC22 (Homo sapiens, UniProt P10415); assay: Antimycin A3 fluorescence binding and competition assay; conditions: 2 μM each, Bcl-2 3 μM, 7.5 minutes, 22.5° C.
T1 construct: poly-His (N); made in house
T1 sequence (P10415 1-217 limits assumed, stated change not applied): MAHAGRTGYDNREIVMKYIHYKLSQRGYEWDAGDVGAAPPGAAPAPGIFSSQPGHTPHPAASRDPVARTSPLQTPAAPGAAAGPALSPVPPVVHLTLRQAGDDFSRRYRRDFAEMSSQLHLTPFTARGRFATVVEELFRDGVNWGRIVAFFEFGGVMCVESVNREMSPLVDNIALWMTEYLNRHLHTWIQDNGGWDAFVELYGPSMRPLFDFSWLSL
Method: In this assay, 0 to 5 μM antimycin A3 (Sigma Chemical Co., St. Louis, Mo.) was added to a physiological buffer (50 mM Tris-HCl pH 8.0, 0.2 M NaCl, 2 mM EDTA, 0.5% v/v glycerol) containing recombinant Bcl-2 or BCl-xL protein under conditions that permitted antimycin A3 to bind to the BH3-binding domain of Bcl-2 or BCl-xL (22.5° C. on a Hitachi F-2500 fluorescence spectrofluorimeter equipped with a thermostatted cell holder). […] The excitation wavelength was 335 nm, and the maximum emission wavelength for antimycin A3 was 428 nm with a slit width of 10 nm. The samples were mixed in a quartz cuvette and checked for inner filter effect over the concentration range of antimycin A3 used for this study. Blanks containing antimycin A3 at the same concentration as the experimental samples were used as controls in all measurements and necessary background corrections were made.
Recombinant human Bcl-2ΔC22 (a recombinant human Bcl-2 with a delection of 22 amino acid residue membrane anchor sequence from the carboxyl end) and mouse Bcl-xLΔC20 (a recombinant murine BCl-xL with a delection of the 20 amino acid residue membrane anchor sequence from the carboxyl end) fused with poly-His at the N-terminus were chromatographically purified to homogeneity. The concentrations of antimycin A3 and stock solutions of recombinant proteins were quantitated using an extinction coefficient of 7.24/mM/cm at 320 nm and by Bradford assay, respectively. The stoichiometric ratio of antimycin A3 and Bcl-2 producing the maximal change in antimycin A3 fluorescence was determined with incremental addition of antimycin A3 to a 1.98 μM solution of recombinant Bcl-2 in a volume of 2.1 milliliters. […] For peptide displacement experiments, a solution of 2 μM antimycin A3 and 3 μM Bcl-2 was allowed to reach binding equilibrium at 4° C. prior to fluorescence measurements. Native peptide corresponding to the BH3 domain of Bak (72-[…]87 (SEQ ID NO:1)) or a mutant peptide with a single amino acid change (Leu78Ala-BH3) was added to the solution and the fluorescence measurements were repeated. […]

cellular O2 consumption = assay: Cellular O2 consumption; format: cell-based; conditions: compared to antimycin A3
S9 metabolism = format: in vitro ADME, human; conditions: pH 7.4
From the text: All chemicals and solvents used for sample preparation and HPLC analysis were analytical grade. Acetonitrile, methanol, and phosphoric acid were purchased from Fisher Scientific (Atlanta, Ga.). Hepatic S9 fractions from male CD2F1 mice, male Sprague Dawley rats, male dogs, and male humans were purchased from In Vitro Technologies (Boston, Mass.). The National Cancer Institute provided samples of the test compounds and male CD2F1 mice. Fischer 344 rats with implanted jugular cannulas were obtained from Charles River Laboratories (Cambridge, Mass.). All animal use and care procedures were approved by the Institutional Committee on Animal Use and Care at the University of Alabama at Birmingham and conformed to the guidelines found in Guide for the Care and Use of Laboratory Animals, National Academy Press, 1996.
To evaluate metabolism of the test compounds by S9 fractions from various species, reaction systems maintained at 37° C. contained 2-OMe-A3 (500 ng/ml) and S9 (1 mg protein/ml) in 100 mM Tris buffer (pH 7.4). At selected times, triplicate portions of the mixtures were removed and processed for analysis, as described above.

Row | Compound | sensitivity (PI exclusion) (NCI-H929) | sensitivity (PI exclusion) (U266) | competition with antimycin A3 for Bcl-2 [1] | effect on cellular O2 consumption (cellular O2 consumption) | half-life (S9 metabolism; 500 ng/ml, 37° C.) | half-life at 2000 ng/ml (S9 metabolism; male, human, hepatic S9 fraction, 2000 ng/ml) [min]
1 | antimycin A | sensitive | sensitive | – | – | – | –
2 | CCCC[C@H]1C(=O)OC(C)[C@H](NC(=O)c2cccc(NC=O)c2OC)C(=O)O[C@@H](C)C1OC(=O)CC(C)C (stereo partly drawn) [2-OMeA3, Antimycin A3 methyl ether] | – | – | competition for the antimycin A3 binding site | negligible effect | only slightly less than that for the control | ~10
